In patent publication US12384789B2, “Compounds for treating Huntington's disease” (PTC Therapeutics, Inc., priority 2017, dated 2025):

Tested on: Endogenous Huntingtin Protein
Test: Endogenous Huntingtin Protein Assay (Meso Scale Discovery ELISA-based electrochemiluminescence)
Assay type: cell-based
Conditions: MSD electrochemiluminescence, Table 1
Outline: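 MSD electrochemiluminescence sandwich ELISA: MW1 (expanded polyQ) or MAB2166 capture antibody at 1 μg/mL, samples incubated overnight at 4° C. Detection with rabbit monoclonal #5656S then SULFO-TAG anti-rabbit antibody, each 0.25 μg/mL for 1 h at room temperature.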

Compound | IC50
Cc1nc2c(C)cc(-c3cc(F)c4cc(C5CCNCC5)nnc4c3)nc2s1 [Compound 133, 7-(2,7-dimethyl[1,3]thiazolo[5,4-b]pyridin-5-yl)-5-fluoro-3-(piperidin-4-yl)cinnoline] | ≤ 100 nM
Cn1cc2cc(-c3cc4c(F)cc(C5=CCNCC5)cc4nn3)cc(F)c2n1 [Compound 134, 5-fluoro-3-(7-fluoro-2-methyl-2H-indazol-5-yl)-7-(1,2,3,6-tetrahydropyridin-4-yl)cinnoline] | ≤ 100 nM
CCN1CCC(c2cc3c(F)cc(-c4cc(C)c5nc(C)sc5n4)cc3nn2)CC1 [Compound 135, 7-(2,7-dimethyl[1,3]thiazolo[5,4-b]pyridin-5-yl)-3-(1-ethylpiperidin-4-yl)-5-fluorocinnoline] | ≤ 100 nM
CCN1CCC(c2cc3c(F)cc(-c4nc5c(C)nc(C)cc5o4)cc3nn2)CC1 [Compound 136, 7-(4,6-dimethyl[1,3]oxazolo[4,5-c]pyridin-2-yl)-3-(1-ethylpiperidin-4-yl)-5-fluorocinnoline] | ≤ 100 nM
Cc1cn2nc(-c3cc(F)c4cc(C5CCNCC5)nnc4c3)cc(OCCn3cccn3)c2n1 [Compound 140, 5-fluoro-7-{2-methyl-8-[2-(1H-pyrazol-1-yl)ethoxy]imidazo[1,2-b]pyridazin-6-yl}-3-(piperidin-4-yl)cinnoline] | ≤ 100 nM
Cc1cn2nc(-c3cc(F)c4cc(C5CCNCC5)nnc4c3)cc(OCCCn3cccn3)c2n1 [Compound 141, 5-fluoro-7-{2-methyl-8-[3-(1H-pyrazol-1-yl)propoxy]imidazo[1,2-b]pyridazin-6-yl}-3-(piperidin-4-yl)cinnoline] | ≤ 100 nM
Cc1cn2nc(-c3cc(F)c4cc(C5CCN(CCCn6cnc7ccccc76)CC5)nnc4c3)cc(C)c2n1 [Compound 145, 3-{1-[3-(1H-benzimidazol-1-yl)propyl]piperidin-4-yl}-7-(2,8-dimethylimidazo[1,2-b]pyridazin-6-yl)-5-fluorocinnoline] | ≤ 100 nM
Cc1cc2cc(-c3cc(F)c4cc(C5CCNCC5)nnc4c3)oc2c(C)n1 [Compound 146, 7-(5,7-dimethylfuro[2,3-c]pyridin-2-yl)-5-fluoro-3-(piperidin-4-yl)cinnoline] | ≤ 100 nM
CCN1CCC(c2cc3c(F)cc(-c4cc(C)c5nc(C)oc5n4)cc3nn2)CC1 [Compound 152, 7-(2,7-dimethyl[1,3]oxazolo[5,4-b]pyridin-5-yl)-3-(1-ethylpiperidin-4-yl)-5-fluorocinnoline] | ≤ 100 nM
CCN1CC=C(c2cc(F)c3cc(-c4cc(F)c5nn(C)cc5c4)nnc3c2)CC1 [Compound 153, 7-(1-ethyl-1,2,3,6-tetrahydropyridin-4-yl)-5-fluoro-3-(7-fluoro-2-methyl-2H-indazol-5-yl)cinnoline] | ≤ 100 nM
CCN1CCC(c2cc(F)c3cc(-c4cc(F)c5nn(C)cc5c4)nnc3c2)CC1 [Compound 154, 7-(1-ethylpiperidin-4-yl)-5-fluoro-3-(7-fluoro-2-methyl-2H-indazol-5-yl)cinnoline] | ≤ 100 nM
Cc1cn2nc(-c3cc(F)c4cc(C5CC(C)N(CCO)C(C)C5)nnc4c3)cc(C)c2n1 (stereo not drawn) [Compound 155, 2-{(25,65)-4-[7-(2,8-dimethylimidazo[1,2-b]pyridazin-6-yl)-5-fluorocinnolin-3-yl]-2,6-dimethylpiperidin-1-yl}ethan-1-ol] | ≤ 100 nM
Cc1cn2cc(-c3cc4c(F)cc(C5=CCNCC5)cc4nn3)cc(C)c2n1 [Compound 156, 3-(2,8-dimethylimidazo[1,2-a]pyridin-6-yl)-5-fluoro-7-(1,2,3,6-tetrahydropyridin-4-yl)cinnoline] | ≤ 100 nM
Cc1cc(-c2cc3c(F)cc(C4=CCNCC4)cc3nn2)cc2cn(C)nc12 [Compound 157, 3-(2,7-dimethyl-2H-indazol-5-yl)-5-fluoro-7-(1,2,3,6-tetrahydropyridin-4-yl)cinnoline] | ≤ 100 nM

Further lines, results first:

IC50 | Compound
≤ 100 nM | Cc1cc2oc(-c3cc(F)c4cc(C5CCNCC5)nnc4c3)nc2c(C)n1 [Compound 137, 7-(4,6-dimethyl[1,3]oxazolo[4,5-c]pyridin-2-yl)-5-fluoro-3-(piperidin-4-yl)cinnoline]
100 to 500 nM | Cc1cn2nc(-c3cc(F)c4cc(C5CCNCC5)nnc4c3)cc(OCCN(C)C)c2n1 [Compound 138, 2-({6-[5-fluoro-3-(piperidin-4-yl)cinnolin-7-yl]-2-methylimidazo[1,2-b]pyridazin-8-yl}oxy)-N,N-dimethylethan-1-amine]
≤ 100 nM | Cc1cn2nc(-c3cc(F)c4cc(C5CCNCC5)nnc4c3)cc(OCCCN(C)C)c2n1 [Compound 139, 3-({6-[5-fluoro-3-(piperidin-4-yl)cinnolin-7-yl]-2-methylimidazo[1,2-b]pyridazin-8-yl}oxy)-N,N-dimethylpropan-1-amine]
100 to 500 nM | Cc1cn2nc(-c3cc(F)c4cc(C5CCNCC5)nnc4c3)cc(OCCCn3ccnc3)c2n1 [Compound 142, 5-fluoro-7-{8-[3-(1H-imidazol-1-yl)propoxy]-2-methylimidazo[1,2-b]pyridazin-6-yl}-3-(piperidin-4-yl)cinnoline]
≤ 100 nM | Cc1cn2nc(-c3cc(F)c4cc(C5CCNC5)nnc4c3)cc(C)c2n1 (stereo not drawn) [Compound 143, 7-(2,8-dimethylimidazo[1,2-b]pyridazin-6-yl)-5-fluoro-3-(pyrrolidin-3-yl)cinnoline]
≤ 100 nM | CCN1CCC(c2cc(F)c3cc(-c4cc(F)c5nc(C)cn5c4)nnc3c2)CC1 [Compound 144, 7-(1-ethylpiperidin-4-yl)-5-fluoro-3-(8-fluoro-2-methylimidazo[1,2-a]pyridin-6-yl)cinnoline]
100 to 500 nM | CCN1CCC(c2cc3c(F)cc(-c4nc5c(C)nc(C)cc5s4)cc3nn2)CC1 [Compound 147, 7-(4,6-dimethyl[1,3]thiazolo[4,5-c]pyridin-2-yl)-3-(1-ethylpiperidin-4-yl)-5-fluorocinnoline]
≤ 100 nM | Cc1nc2c(C)cc(-c3cc(F)c4cc(C5CCNCC5)nnc4c3)nc2o1 [Compound 148, 7-(2,7-dimethyl[1,3]oxazolo[5,4-b]pyridin-5-yl)-5-fluoro-3-(piperidin-4-yl)cinnoline]
≤ 100 nM | Cc1cc2sc(-c3cc(F)c4cc(C5CCNCC5)nnc4c3)nc2c(C)n1 [Compound 149, 7-(4,6-dimethyl[1,3]thiazolo[4,5-c]pyridin-2-yl)-5-fluoro-3-(piperidin-4-yl)cinnoline]
≤ 100 nM | Cc1cn2nc(-c3cc(F)c4cc(C5CCNCC5)nnc4c3)cc(OCCCn3cnc4ccccc43)c2n1 [Compound 150, 7-{8-[3-(1H-benzimidazol-1-yl)propoxy]-2-methylimidazo[1,2-b]pyridazin-6-yl}-5-fluoro-3-(piperidin-4-yl)cinnoline]
≤ 100 nM | Cn1cc2cc(-c3cc4c(F)cc(C5CCNCC5)cc4nn3)cc(F)c2n1 [Compound 151, 5-fluoro-3-(7-fluoro-2-methyl-2H-indazol-5-yl)-7-(piperidin-4-yl)cinnoline]
≤ 100 nM | Cc1cn2nc(-c3cc(F)c4cc(C5CCN(CCCN(C)C)CC5)nnc4c3)cc(C)c2n1 [Compound 158, 3-{4-[7-(2,8-dimethylimidazo[1,2-b]pyridazin-6-yl)-5-fluorocinnolin-3-yl]piperidin-1-yl}-N,N-dimethylpropan-1-amine]
≤ 100 nM | Cc1cn2nc(-c3cc(F)c4cc(C5CCN(CCn6cnc7ccccc76)CC5)nnc4c3)cc(C)c2n1 [Compound 159, 3-{1-[2-(1H-benzimidazol-1-yl)ethyl]piperidin-4-yl}-7-(2,8-dimethylimidazo[1,2-b]pyridazin-6-yl)-5-fluorocinnoline]
